For one assay, the target named is T1, GST-ULK1 (Homo sapiens, UniProt O75385).
T1 sequence (O75385 1-1050): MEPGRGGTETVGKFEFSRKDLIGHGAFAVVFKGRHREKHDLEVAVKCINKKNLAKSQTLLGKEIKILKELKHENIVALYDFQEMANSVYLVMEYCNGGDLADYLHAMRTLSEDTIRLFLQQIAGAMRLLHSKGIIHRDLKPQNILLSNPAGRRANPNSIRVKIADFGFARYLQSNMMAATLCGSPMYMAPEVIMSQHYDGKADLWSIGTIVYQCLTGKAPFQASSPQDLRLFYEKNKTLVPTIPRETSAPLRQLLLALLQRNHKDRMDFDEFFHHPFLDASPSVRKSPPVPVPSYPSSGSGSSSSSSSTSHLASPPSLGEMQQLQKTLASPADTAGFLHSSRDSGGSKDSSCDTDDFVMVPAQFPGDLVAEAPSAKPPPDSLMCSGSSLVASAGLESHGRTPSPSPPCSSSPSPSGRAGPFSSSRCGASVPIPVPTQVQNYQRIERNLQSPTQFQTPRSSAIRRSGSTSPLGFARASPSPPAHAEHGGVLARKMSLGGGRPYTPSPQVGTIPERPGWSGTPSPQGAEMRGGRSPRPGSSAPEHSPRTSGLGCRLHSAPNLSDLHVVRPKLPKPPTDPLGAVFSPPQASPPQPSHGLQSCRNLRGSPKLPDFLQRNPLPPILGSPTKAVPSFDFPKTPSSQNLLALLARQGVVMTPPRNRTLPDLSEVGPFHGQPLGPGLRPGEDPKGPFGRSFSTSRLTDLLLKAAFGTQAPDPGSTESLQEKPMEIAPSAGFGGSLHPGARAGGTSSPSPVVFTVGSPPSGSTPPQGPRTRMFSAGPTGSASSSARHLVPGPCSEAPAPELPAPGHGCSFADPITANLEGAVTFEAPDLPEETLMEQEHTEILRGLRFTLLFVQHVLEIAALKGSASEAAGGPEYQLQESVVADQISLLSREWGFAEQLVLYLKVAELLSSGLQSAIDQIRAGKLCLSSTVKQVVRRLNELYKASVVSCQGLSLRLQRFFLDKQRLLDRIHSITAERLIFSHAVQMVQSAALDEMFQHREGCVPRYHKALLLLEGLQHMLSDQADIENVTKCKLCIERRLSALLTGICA
Nature of the assay: LanthaScreen ULK1 inhibitor assay. The format is biochemical. The conditions noted are these: 5 nM GST-ULK1, 30 nM tracer, 20 μM ATP, 1 hr room temperature.

For a further assay, the target named is T2, ULK1 kinase (Homo sapiens, UniProt O75385).
T2 construct: purchased Reaction Biology
T2 sequence (O75385 1-1050): T1 sequence (O75385 1-1050)
The assay is described as follows: Radiometric HotSpot kinase assay (Reaction Biology). The format is biochemical. The settings on record: activity-based ULK1 kinase assay.

A further assay deals with T3, ULK1 kinase domain (Homo sapiens, UniProt O75385).
T3 construct: The protein expression construct of ULK1 kinase domain (1-283) was cloned; 6His-Sumo (N, cleaved yes); made in house; host or cells: E. coli BL21 star, co-expressed with lambda phosphatase
T3 sequence (O75385 1-283): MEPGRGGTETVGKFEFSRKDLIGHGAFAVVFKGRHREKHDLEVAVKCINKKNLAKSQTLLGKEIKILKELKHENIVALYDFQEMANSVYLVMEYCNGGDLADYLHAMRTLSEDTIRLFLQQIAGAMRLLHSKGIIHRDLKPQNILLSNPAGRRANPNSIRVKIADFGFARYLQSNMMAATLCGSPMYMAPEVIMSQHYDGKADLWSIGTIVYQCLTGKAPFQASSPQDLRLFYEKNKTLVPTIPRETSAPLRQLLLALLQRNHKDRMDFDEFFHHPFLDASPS
Nature of the assay: Differential scanning fluorimetry (thermal shift). The format is binding. The settings on record: 2 μM ULK1 kinase domain, 50 μM compound, vs DMSO reference.

In the next assay the target is T4, ULK1-nanoluc (Homo sapiens, UniProt O75385).
T4 construct: host or cells: H2030 cells (ATCC)
T4 sequence (O75385 1-1050): T1 sequence (O75385 1-1050)
The assay is described as follows: NanoBRET target engagement in live cells. The class given is cell-based. The conditions noted are these: H2030 cells transfected with ULK1-nanoluc, Tracer K10, 2 hr. (In general: In BRET a luciferase serves as donor, and the signal depends on an acceptor being close.)

The term IC50 denotes the midpoint of a concentration-inhibition curve. The term ΔTm denotes the change in melting temperature against a reference sample. As a reminder, the EC50 is the concentration needed to bring the measured effect to its halfway point. A higher EC50 goes with weaker potency.

Turning to `C[C@@H](CO)NC(=O)c1nc(-c2cnc3[nH]c(-c4ccc(F)cc4)cc3c2)cs1` [Compound 76, (S)-4-(2-(4-fluorophenyl)-1H-pyrrolo[2,3-b]pyridin-5-yl)-N-(1-hydroxypropan-2-yl)thiazole-2-carboxamide], the IC50 was determined as 25 nM against GST-ULK1 and 44 nM on ULK1 kinase. The ΔTm at 50 µM on ULK1 kinase domain was found to be 7.56 °C. This compound also displayed an EC50 at ULK1-nanoluc of 541 nM.

As for `O=C(NCC(O)C(F)(F)F)c1nc(-c2cnc3[nH]c(-c4ccc(F)cc4)cc3c2)cs1` (stereo not shown) [Compound 65, 4-(2-(4-Fluorophenyl)-1H-pyrrolo[2,3-b]pyridin-5-yl)-N-(3,3,3-trifluoro-2-hydroxy-propyl)thiazole-2-carboxamide], the IC50 against GST-ULK1 was 17 nM; on ULK1 kinase, 29 nM. Further, at ULK1 kinase domain, the ΔTm at 50 µM is 7.12 °C. On ULK1-nanoluc, this compound showed an EC50 of 122 nM.

For `FC(F)(F)c1cnc2[nH]c(C3=CCOCC3)cc2c1NCCN1CCNCC1` [Compound 87, 2-(3,6-dihydro-2H-pyran-4-yl)-N-(2-(piperazin-1-yl)ethyl)-5-(trifluoromethyl)-1H-pyrrolo[2,3-b]pyridin-4-amine], the IC50 against GST-ULK1 stood at 16 nM; at ULK1 kinase it was 10 nM. The ΔTm at 50 µM at ULK1 kinase domain worked out at 12.5 °C. The compound further registered an EC50 on ULK1-nanoluc of 76 nM.

Consider `O=C(NC[C@H](O)CO)c1cccc(-c2cnc3[nH]c(-c4ccc(F)cc4)cc3c2)n1` [Compound 58, (S)—N-(2,3-Dihydroxypropyl)-6-(2-(4-fluorophenyl)-1H-pyrrolo[2,3-b]pyridin-5-yl)-picolinamide], for which the IC50 is 67 nM against GST-ULK1 and 22 nM at ULK1 kinase. Moreover, at ULK1 kinase domain, the ΔTm at 50 µM amounted to 9.22 °C. The concentration for a half-maximal effect (EC50) on ULK1-nanoluc is 2370 nM.

The values are drawn from patent US20250042895A1, “INHIBITORS OF ULK1 AND METHODS OF USE” (H. LEE MOFFITT CANCER CENTER AND RESEARCH INSTITUTE, INC., priority 2021, published 2025).
